Measurements taken from patent US20260077191A1, “COMBINATION THERAPY FOR THE TREATMENT OF DEPRESSION” (Flow Neuroscience, Inc., priority 2022, published 2026).

How the values were obtained:
[1] = system: serotonin reuptake and norepinephrine reuptake; conditions: cited from earlier work; for selectivity for serotonin reuptake inhibition than norepinephrine reuptake inhibition: higher selectivity for serotonin reuptake
[2] = system: Major depressive disorder (MDD); assay: weekly MADRS-s self-assessment of MDD subjects on a pharmacologic antidepressant agent combined with tDCS sessions (Example 2); assay type: in vivo, human; conditions: each agent combined with tDCS; Week 6; change in MADRS-s, FIG. 7
Source text: In this example, a subject completed a MADRS-s questionnaire at baseline (defined as a time preceding initiation of neurostimulation) to determine a starting measurement to be used in an assessment of treatment efficacy. Ideally, baseline measures were made close to the period of time in which the first neurostimulation session began. The subject completed the same MADRS-s questionnaire weekly during a period of ongoing treatment comprising administering of a prescribed pharmacologic antidepressant agent and delivery to the subject of plurality tDCS sessions. […]
Subjects were provided with a tDCS neurostimulation device, instructions of use, and an program capable of being run on a handheld electronic device which provided instructions, recorded responses to various questionnaires completed by the subject, and recorded information regarding the tDCS stimulation sessions completed by the user. Amongst the tDCS stimulation session information recorded was the date of each session completed, the time of day of each completed session, the duration of each completed session, the intensity of electrical stimulation in each session, the latency from the most recently completed session to the previous session.
Subjects completed a MADSR-s assessment at baseline prior to their first tDCS session. […] If the dosage had changed, the subject recorded the extent of the change. […]

Row | SMILES | potency for norepinephrine reuptake inhibition than serotonin reuptake inhibition [1] [fold] | effectiveness in improving symptoms of depression compared to fluoxetine [2] | selectivity for serotonin reuptake inhibition than norepinephrine reuptake inhibition [1] [fold]
1 | CCN(CC)C(=O)[C@@]1(c2ccccc2)C[C@H]1CN [Levomilnacipran] | 2 |  | 
2 | CCN(CC)C(=O)C1(c2ccccc2)CC1CN (stereo not drawn) [Milnacipran] | 3 |  | 
3 | CN[C@H]1CC[C@@H](c2ccc(Cl)c(Cl)c2)c2ccccc21 [Sertraline] |  | significantly better | 
4 | COc1ccc(C(CN(C)C)C2(O)CCCCC2)cc1 (stereo not drawn) [Venlafaxine] |  | approaching significance | 
5 | CN(C)CC(c1ccc(O)cc1)C1(O)CCCCC1 (stereo not drawn) [desvenlafaxine] |  |  | 10
6 | CNCC[C@H](Oc1cccc2ccccc12)c1cccs1 [duloxetine] |  |  | 10
